From US11453671B2, “Pyrazolopyrimidine inhibitors of JAK kinases and uses thereof” (Genentech, Inc., priority 2020, dated 2022)

Experiments:
[1] = Cell cytotoxicity assay Jurkat (CellTiter-Glo, 72 hours); type: cell-based; conditions: human, Jurkat clone E6-1 cells, read-out: Cytotox Jurkat EC50
Procedure, shortened: (§1)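 HEK-293T or Jurkat E6-1 cells plated at 450 cells/well were treated the next day with a 10-point titration from 50 μM top (0.5% DMSO final). After 72 h at 37° C, viability was read by CellTiter-Glo luminescence.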

[2] = target: Recombinant human JAK2 kinase domain protein (Residues 812-1132) (Homo sapiens, UniProt O60674); experiment: JAK2 biochemical assay (microfluidic mobility shift, peptide phosphorylation); conditions: Enzyme JAK2 Ki (nM), 25 μM ATP, 0.2 nM total JAK2
Description: The in vitro biochemical assays quantify JAK-catalyzed phosphorylation of a synthetic peptide, as detected using a LabChip® EZ Reader II microfluidic mobility shift instrument (PerkinElmer; Waltham, Mass.). […] Y-1B is fluorescently labeled on the N-terminus with 5-FAM (5-carboxyfluorescein) and contains a single tyrosine residue (Y) that can be phosphorylated by JAK activity. The substrate peptide stock is prepared in DMSO at 5 mM.
In each titration experiment, test compound was tested in duplicate at each of the twelve concentrations. Blank reactions contained ATP, peptide, and DMSO, but no JAK or test compound, whereas uninhibited control reactions contained ATP, peptide, JAK, and DMSO, but no test compound.
Peptide plus ATP mixture (24 μL) was added to 1 μL of test compound in DMSO (or DMSO alone). The reactions were initiated by adding 25 μL of JAK enzyme to the inhibitor/peptide/ATP mixture before thoroughly mixing the resultant solution. Reactions were incubated at room temperature (22° C.-23° C.) in a final volume of 50 μL per well in 384-well plates.
In each reaction, the residual Y-1B substrate and the phospho-peptide product generated were separated using the EZ Reader II instrument. Electrophoretic separation of molecules of product from molecules of substrate was achieved using downstream and upstream voltages of −500 and −2600 V, respectively, at an operating pressure of −1.3 psi.
The extent (or percent) of conversion of substrate to product was calculated from the corresponding peak heights in the electropherogram using HTS Well Analyzer software, Version 5.2 (PerkinElmer), and the following equation (Equation 1): % conversion=[P÷(S+P)]×100 Equation 1 where S and P represent the peak heights of the substrate and product, respectively. After any baseline signal from blank wells containing no JAK was subtracted from the signal of all test wells, the % conversion data were converted to fractional activity as shown in Equation 2, where vi and vo are the % conversion in the presence and absence of test compound, respectively.

[3] = Mouse lung tissue binding (equilibrium dialysis, RED); type: in vitro ADME; conditions: for Mouse LTB %: mouse lung tissue binding, % bound (Table 3)
Procedure, shortened: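 Equilibrium dialysis of mouse lung homogenate against buffer at 37° C. Method (a) used 1 μM compound, pH 7.4 homogenate and 6 h dialysis. Method (b) used 5 μM compound in 1:9 homogenate (0.05 M potassium phosphate pH 7.4) and 4 h dialysis, with fu corrected for dilution. Both were run in triplicate with LC-MS/MS quantification.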

[4] = Cell cytotoxicity assay A549 (CellTiter-Glo, 72 hours); type: cell-based; conditions: human, A549 cells, read-out: Cytotox A549 EC50
Procedure, shortened: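 A549 cells were plated overnight, then exposed for 72 h at 37 °C to a 10-point compound titration (top 50 μM, 0.5% DMSO final). Viability was read as CellTiter-Glo luminescence after 20 min at room temperature.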

[5] = target: T1, recombinant human JAK1 kinase domain protein (Residues 854-1154) (Homo sapiens, UniProt P23458); experiment: JAK1 biochemical assay (microfluidic mobility shift, peptide phosphorylation); conditions: 25 μM ATP, 1 nM total JAK1; read-out: Enzyme JAK1 Ki
T1 construct: human JAK1 kinase domain protein (Residues 854-1154); purchased Proteros Biostructures GmbH (Martinsried, Germany); host or cells: insect cells
Excerpt: JAK1 and JAK2 Biochemical Assays

[6] = Cell cytotoxicity assay HEK-293T (CellTiter-Glo, 72 hours); type: cell-based; conditions: human, HEK-293T cells, read-out: Cytotox K-293 EC50
Procedure, shortened: as §1

[7] = Table 3, 72 hours, top concentration of 50 μM
[8] = Table 4, methyl-desmethyl analog pairs

T1 sequence (P23458 854-1154): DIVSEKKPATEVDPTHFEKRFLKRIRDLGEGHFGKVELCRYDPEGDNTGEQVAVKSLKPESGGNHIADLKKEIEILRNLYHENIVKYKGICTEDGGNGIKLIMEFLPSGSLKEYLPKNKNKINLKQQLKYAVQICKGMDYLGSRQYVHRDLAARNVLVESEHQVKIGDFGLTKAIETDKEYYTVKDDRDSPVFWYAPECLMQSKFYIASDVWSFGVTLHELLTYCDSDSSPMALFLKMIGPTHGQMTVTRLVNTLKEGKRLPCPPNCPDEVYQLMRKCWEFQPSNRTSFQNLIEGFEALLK
Chain of Recombinant human JAK2 kinase domain protein (Residues 812-1132) (O60674 812-1132): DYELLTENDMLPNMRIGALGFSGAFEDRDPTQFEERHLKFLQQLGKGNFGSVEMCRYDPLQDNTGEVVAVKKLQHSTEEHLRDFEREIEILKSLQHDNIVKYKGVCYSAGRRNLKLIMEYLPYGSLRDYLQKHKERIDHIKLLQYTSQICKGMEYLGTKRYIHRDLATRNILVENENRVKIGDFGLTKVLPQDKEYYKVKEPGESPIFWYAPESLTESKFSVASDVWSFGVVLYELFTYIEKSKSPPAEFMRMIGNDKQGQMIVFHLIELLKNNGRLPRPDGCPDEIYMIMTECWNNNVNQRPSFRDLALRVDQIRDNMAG

Structure (SMILES)	Ki [2] [nM]	Mouse LTB % [3] [%]	Ki [5] [µM]	Lung tissue binding, % ([3]; Table 5, sulfone-sulfide analog pairs) [%]	EC50 at 72 h [1, 7] [µM]	EC50 at 72 h [4, 7] [µM]	EC50 at 72 h [6, 7] [µM]	EC50 at 72 h [1, 8] [µM]	EC50 at 72 h [4, 8] [µM]	EC50 at 72 h [6, 8] [µM]
N#CCn1cc(NC(=O)c2cnn3cccnc23)c(-c2cc(S(=O)(=O)C3CC3)ccc2OC(F)F)n1 [Example 45, N-[1-(cyanomethyl)-3-[5-cyclopropylsulfonyl-2-(difluoromethoxy)phenyl]pyrazol-4-yl]pyrazolo[1,5-a]pyrimidine-3-carboxamide]	0.35	87.9	0.00071		≥ 50	≥ 50	≥ 50			
Cn1cc(NC(=O)c2cnn3cccnc23)c(-c2cc(S(=O)(=O)N3CCC3)ccc2OC(F)F)n1 [Example 21, N-[3-[5-(azetidin-1-ylsulfonyl)-2-(difluoromethoxy)phenyl]-1-methyl-pyrazol-4-yl]pyrazolo[1,5-a]pyrimidine-3-carboxamide]	0.16	83	0.00022		11	7.5	4.8			
Cn1cc(NC(=O)c2cnn3cccnc23)c(-c2cc(S(=O)(=O)C3CCCNC3)ccc2OC(F)F)n1 (single isomer, unassigned) [Example 37, N-[3-[2-(difluoromethoxy)-5-(3-piperidylsulfonyl)phenyl]-1-methyl-pyrazol-4-yl]pyrazolo[1,5-a]pyrimidine-3-carboxamide]	0.54	90.1	0.00069		≥ 50	≥ 50	31			

Continued, in another order:

Ki [2] [nM]	Mouse LTB % [3] [%]	Ki [5] [µM]	Lung tissue binding, % ([3]; Table 5, sulfone-sulfide analog pairs) [%]	Structure (SMILES)	EC50 at 72 h [1, 7] [µM]	EC50 at 72 h [4, 7] [µM]	EC50 at 72 h [6, 7] [µM]	EC50 at 72 h [1, 8] [µM]	EC50 at 72 h [4, 8] [µM]	EC50 at 72 h [6, 8] [µM]
0.37	84.4	0.0005		CN(C)CCn1cc(S(=O)(=O)c2ccc(OC(F)F)c(-c3nn(C)cc3NC(=O)c3cnn4cccnc34)c2)cn1 [Example 49, N-[3-[2-(difluoromethoxy)-5-[1-[2-(dimethylamino)ethyl]pyrazol-4-yl]sulfonyl-phenyl]-1-methyl-pyrazol-4-yl]pyrazolo[1,5-a]pyrimidine-3-carboxamide]	24	33	14			
0.19	86.2	0.0003	86.2	Cn1cc(S(=O)(=O)c2ccc(OC(F)F)c(-c3nn(C)cc3NC(=O)c3cnn4cccnc34)c2)cn1 [Example 35, N-[3-[2-(difluoromethoxy)-5-(1-methylpyrazol-4-yl)sulfonyl-phenyl]-1-methyl-pyrazol-4-yl]pyrazolo[1,5-a]pyrimidine-3-carboxamide]	21	22	17			
0.19	80.1	0.00043		Cn1cc(NC(=O)c2cnn3cccnc23)c(-c2cc(S(=O)(=O)CCO)ccc2OC(F)F)n1 [Example 5, N-[3-[2-(difluoromethoxy)-5-(2-hydroxyethylsulfonyl)phenyl]-1-methyl-pyrazol-4-yl]pyrazolo[1,5-a]pyrimidine-3-carboxamide]	23	45.5	10.2			
0.1	85.8	0.00022		Cn1cc(NC(=O)c2cnn3cccnc23)c(-c2cc(S(C)(=O)=O)ccc2OC(F)F)n1 [Example 17, N-[3-[2-(difluoromethoxy)-5-methylsulfonyl-phenyl]-1-methyl-pyrazol-4-yl]pyrazolo[1,5-a]pyrimidine-3-carboxamide]	11	8.7	7.3	11	8.7	7.3
